Experimental data from patent US9746463B2 (THE TRUSTEES OF COLUMBIA UNIVERSITY IN THE CITY OF NEW YORK, priority 2006, dated 2017).
Values belong to the molecule of their own block, whether it stands above or below them. Bridge positions count the residues as written; N and C are the ends. Square brackets hold non-standard residues; d marks the D form. Primed or numbered codes have the meaning given here. Ends that are not written are not given here. Gla′ = carboxylated glutamic acid

Assays:
[1] = test system: Adiponectin expression in WT adipocytes; assay: Adiponectin expression in adipocytes treated with osteocalcin (real time PCR); format: cell-based, mouse
Experimental: (§1) FIG. 7A-O. Esp−/− Mice Are a Model of Increased Osteocalcin Bioactivity. (FIGS. 7A-G) Comparison between 6-week-old WT, Esp−/, Ocn+/−, and Esp−/−; Ocn+/− mice. (FIG. 7A) Blood glucose levels. (FIG. 7B) Serum insulin levels. (FIG. 7C) Serum adiponectin levels. (FIG. 7D) GTT. (FIG. 7E) ITT. (FIG. 7F) GSIS test. (FIG. 7G) Quantification of the number of Ki67-immunoreactive cells in pancreatic islets. […] (FIG. 7K) Expression of Adiponectin in WT adipocytes cultured in presence of vehicle or of 1 ng/ml of commercially available carboxylated osteocalcin (Immunotopics) or bacterially produced uncarboxylated osteocalcin. (FIG. 7L) Expression of Insulin and Cyclin D1 in WT islets cultured in presence of 0.3 ng/ml of bacterially produced uncarboxylated osteocalcin or vehicle. (FIG. 7M) Metabolic parameters and total serum osteocalcin levels in control and obese patients. (FIG. 7N-O) Quantification of carboxylated osteocalcin (HA-bound osteocalcin) in control and obese patients. In (FIGS. 7A)-(C) and (FIGS. G)-(L): *p<0.05 versus WT (Student's t test); in (FIG. D)-(F), °p<0.05 versus WT and *p % 0.001 versus WT (ANOVA followed by post hoc analysis).
FIG. 15. […] Wt adipocytes were treated for 4 hours with recombinant full-length osteocalcin (1-46) or a truncated form (1-36) or vehicle. Adiponectin expression was then quantified by real time PCR.
Primary adipocytes were isolated from epididymal fat pads by collagenase digestion. Briefly, minced adipose tissue was digested by 1 mg/ml collagenase P in KRP Buffer (20 mM HEPES, 120 mM NaCl, 6 mM KCl, 1.2 mM MgSO4, 1 mM CaCl2, 0.6 mM Na2HPO4, 0.4 mM NaH2PO4, 2.5 mM D-glucose, 2% BSA, pH 7.4) for 1 h at 37° C. The isolated cells were washed twice with KRP Buffer before being cultured in αMEM/1% FBS at 37° C. in 5% CO2.
Gene expression analyses. All gene expression analyses were performed using real time PCR. DNAse I-treated total RNA was converted to cDNA with the SuperScript III kit (Invitrogen). Real-time PCR were performed using the Taq SYBR Green Supermix with ROX (Biorad) on an MX3000 instrument (Stratagene); beta-actin amplification was used as an internal reference for each sample. All primers were from SuperArray.
A fragment of uncarboxylated osteocalcin is biologically active. Experiments were performed to test whether truncated osteocalcin was as effective as full-length uncarboxylated osteocalcin in stimulating adiponectin secretion from mouse adipocytes in vitro. Wild type adipocytes were treated for 4 hours with recombinant full-length osteocalcin (1-46) or a truncated form (1-36) (having a deletion of the first ten amino acids from the C-terminal end) or vehicle. Adiponectin expression was then quantified by real time PCR. […]

[2] = test system: gamma-carboxylation of osteocalcin in osteoblasts; assay: Osteocalcin/hydroxyapatite (HA) binding assay of medium from warfarin-treated osteoblasts; format: cell-based, mouse
Experimental: as §1
Cell culture experiments. […]
Osteocalcin/hydroxyapatite (HA) binding assay. […] Osteocalcin present in eluates and initial samples was measured by IRMA. […]

[3] = test system: Adiponectin expression in WT adipocytes; assay: Co-culture of adipocytes with warfarin-treated osteoblasts: adiponectin expression; format: cell-based, mouse; details: warfarin-treated vs vehicle-treated osteoblasts (FIG. 7J)
Experimental: as §1
Co-culture of osteoblasts and adipocytes to study regulation of adiponectin expression/secretion by osteocalcin. A co-culture assay was developed between osteoblasts and adipocytes to analyze modifications in adiponectin expression. […]

wild type osteoblasts = assay: Isoproterenol on wild type osteoblasts: mRNA levels by quantitative PCR; format: cell-based
Source text: The sympathetic nervous system positively regulates OST-PTP expression. It was discovered that sympathetic nervous system (SNS) activity positively regulates Esp expression in osteoblasts. […] Thus, decreasing sympathetic activity should lead to a decrease in Esp expression and thereby to an increase in the undercarboxylated, active form of osteocalcin.

[4] = hydroxyapatite competition studies; cited from earlier work

Molecule: 1-36 fragment of uncarboxylated osteocalcin: Recombinant truncated mouse osteocalcin (1-36), ten amino acids deleted from the C-terminal end (YLGASVPSPDPLEPTREQCELNPACDELSDQYGLKT; not fully specified; ends and bridges not checked; UniProt P86546 50-85, looked up, fragment)
increase of Adiponectin expression ([1]; wild type adipocytes treated for 4 hours, real time PCR, vs vehicle): ~1.8 fold
potency in inducing adiponectin expression compared with native osteocalcin ([1]; wt adipocytes, 4 hours, in vitro): as potent as native osteocalcin

percentage of osteocalcin bound to HA ([2]; conditioned medium of warfarin-treated osteoblasts vs vehicle (FIG. 7I)): marked decrease
levels of undercarboxylated osteocalcin produced by osteoblasts ([2]; warfarin-treated vs vehicle-treated osteoblasts (FIG. 7I)): elevated levels
Molecule: CC(=O)CC(c1ccccc1)c1c(O)c2ccccc2oc1=O (stereo not drawn) [warfarin]
induction of adiponectin expression in co-cultured adipocytes [3]: significantly higher extent

Molecule: carboxylated osteocalcin: commercially available carboxylated osteocalcin (Immunotopics) (YLYQWLGAPVPYPDPL[Gla′]PRR[Gla′]VC[Gla′]LNPDCDELADHIGFQEAYRRFYGPV; disulfide 23-29; ends not checked; also: carboxylated (Gla), sites not given here; UniProt P02818 52-100, looked up) [reference compound]
induction of adiponectin expression ([1]; WT adipocytes, 1 ng/ml (FIG. 7K)): failed to induce adiponectin expression

expression of gamma-carboxylase (ggcx) (wild type osteoblasts): did not increase expression
Molecule: CC(C)NCC(O)c1ccc(O)c(O)c1 (stereo not drawn) [isoproterenol]
expression of osteocalcin (wild type osteoblasts): did not increase expression
expression of vkor (wild type osteoblasts): did not increase expression
increase of Esp expression (wild type osteoblasts; at 8 hours): remains steady
increase of Esp expression (wild type osteoblasts; by 4 hours): about 80%

Molecule: Decarboxylated osteocalcin: thermally decarboxylated osteocalcin of the literature (YLYQWLGAPVPYPDPLEPRREVCELNPDCDELADHIGFQEAYRRFYGPV; not fully specified; ends and bridges not checked; UniProt P02818 52-100, looked up)
competition with ^125I-labeled osteocalcin bound to hydroxyapatite [4]: fail to compete
